Source: patent US6613317B1, “Volatile attractants for diabrotica species” (priority 1988, dated 2003)
Marks after values point to notes of the source that are not given here.

Assays:
[1] = system: northern corn rootworm (NCR); assay: Sticky trap attraction in corn, phenylethanol analogues (Example 6); format: in vivo, Diabrotica barberi; settings: four replicates; for Mean number of NCR per trap (± standard deviation): Table 20, 100 mg per trap, 24 hour
Description: (§1) Test chemicals (purchased from Aldrich Chemical Co.; Milwaukee, Wis.) were applied by capillary micropipettes to cotton dental wicks that were attached to tops of 1.0 liter cylindrical paper cartons covered with TangleTrap™, Grand Rapids, Mich. The trapping techniques used were as previously described in Example 1. Unless otherwise indicated, all treatments were made at a dosage of 100 mg or 100 μL of attractant per trap. Control traps had untreated wicks. Four replicates of treated and untreated traps were positioned randomly 10 meters apart on top of 1 m high posts along the edges of 25-50 ha. fields of hybrid corn (Zea mays), infested with adult NCR, SCR, and WCR beetles. Several experiments detailed in the Tables were made in a 0.4 ha plot of sweet corn (Illini X-tra Sweet).
(§2) Attraction of Diabrotica species adults of the sticky traps was measured by the mean number of beetles caught after 1 day (ca. 24 hours) exposure. The significance of the treatments was determined by analysis of variance and the individual means were separated by Duncan's multiple range test (Statistical Package for the Social Sciences, Nie, et al., 2nd. ed. McGraw-Hill, New York (1975). The data was logarithmically transformed for statistical analysis. Means and standard deviations are presented for the untransformed data. Significance levels were set at P=0.05 for all statistical analyses.

[2] = system: western corn rootworm (WCR) adults; assay: Sticky trap attraction in sweet corn plots (Example 1); format: in vivo, Diabrotica virgifera virgifera; settings: August first year, single compounds 100 mg per trap
Description: (§3) The attraction of Diabrotica species to single-component and multicomponent lures was evaluated in corn fields. The field experiments on attraction of SCR and WCR adults were conducted in 0.405-ha (1-acre) plots of “Illini Xtra Sweet” corn grown on the University of Illinois South Farms at Urbana, Ill., over a two year period. Most of the tests were conducted in August to correspond with the peak silk-feeding and oviposition periods of corn rootworm adults in central Illinois. In both years, the sweet corn plot was adjacent to a 0.405-ha trap crop of C. maxima cultivar “Blue Hubbard”, to provide high densitites of SCR and WCR adults in the corn plots (Howe, et al., Environ. Entomol., 5:745-751 (1976), Lampman, et al., J. Chem. Ecol., 13:959-975 (1987).
(§4) Attraction of Diabrotica species to volatile compounds was measured by the average number of beetles cought during a 24-h period on 1.0-liter cylindrical paper cartons (15.2 cm high, 27.9 cm circumference) which were evenly coated with clear insect adhesive, TangleTrap™ (Tanglefood Co., Grand Rapids, Mich.) The candidate attractants were applied by capillary micropiettes to cotton dental wicks (13 mm long by 6 mm diameter) that were previously impregnated with mineral oil to prolong volatilization. The chemicals were purchased from Aldrich Chemical Co., (Milwaukee, Wis.) and assayed by gas chromatography as >97% pure. Indole, a solid at ambient temperatures (m.p. 52-54° C.), was dissolved in glass-distilled acetone before dosing the cotton wicks. For dosage-acticity tests, the various components were mixed in equal quantities by weight and diluted to the appropriate dosage with acetone. Treated and untreated (control) wicks were attached to the top of the paper cartons with TangleTrap™ and the inverted traps were placed on 1-m-high posts between the sweet corn rows. Four replicates of each treatment and a control were conducted in a randomized complete block desgin. The sticky traps within a block (ca. 50-m row of corn) were 5-10 m apart (depending on the number of treatments in a particular test) and the blocks were 3 m apart. The traps were baited and placed in the field between 1000 and 1300 hours and beetle counts were taken after 24 h. The significance of treatments was determined by analysis of variance and the individual means were separated by Duncan's multiple range test (Statistical Package for Social Sciences (SPSS) (Nie, et al., SPSS: statistical package for the social sciences, 2nd ed. McGraw-Hill, N.Y. (1975)). Student's t test was used for comparisons of two means (Sokal, et al., Biometry, Freeman, San Francisco (1969). Significance levels were set at P=0.05 at all statistical analyses.
(§5) The initial field test in August of the first year evaluated the response of SCR and WCR adults of a mixture of veratrole (V), indole (I), phenylacetaldehyde (P), trans-anethole (A), and eugenol (E) (=VIPAE mixture), as well as to the individual components. Each component in the VIPAE mixture was present at a dosage of 20 mg per trap and was compared with the individual components at 100 mg per trap. The response of SCR and WCR adults to a range of VIPAE doses, 1-300 mg, was conducted on the following day. Fifty SCR adults were removed from each 100-mg VIPAE trap, and returned to the laboratory for sex determination. Additional analyses in August evaluated the reduction in trap catches produced by the sequential removal of the individual components from the VIPAE lure. After the primary components of the initial lure were determined, a modified multicomponent lure consisting of veratrole, indole, and phenylacetaldehyde (=VIP mixture) was compared with its individual components to determine whether the attraction of SCR adults was the result of interactive or additive factors. The attraction and synergistic response of SCR adults of the VIP mixture was verified by tests conducted in August of the following year. […]

[3] = system: western corn rootworm (WCR) adults; assay: Sticky trap attraction in corn, estragole analogues (Example 3); format: in vivo, Diabrotica virgifera virgifera; settings: 100 mg per trap; for Mean number of WCR per sticky trap (±standard deviation) after 24 hours / Mean number of WCR adults per sticky trap (±standard deviation) after 24 hours: n = 4
Description: as §1, with “chemicals” for “chemicals (purchased from Aldrich Chemical Co.; Milwaukee, Wis.)”, “Cinnamyl alcohol, 4-methoxycinnamaldehyde, cinnamyl acetate, and 4-(4′methoxyphenyl)-3-butene-2-one which are solids at ambient temperature were prepared as standard w/v solutions in acetone prior to dosing the cotton wicks. All” for “Unless otherwise indicated, all”
as §2

[4] = system: southern corn rootworm (SCR) adults; assay: Sticky trap attraction in sweet corn plots (Example 1); format: in vivo, Diabrotica undecimpunctata howardi; settings: August first year, single compounds 100 mg per trap
Description: as §3, §4, §5

[5] = system: southern corn rootworm (SCR) adults; assay: Sticky trap attraction in corn, estragole analogues (Example 3); format: in vivo, Diabrotica undecimpunctata howardi; settings: 100 mg per trap, n = 4
Description: as §1, with “chemicals” for “chemicals (purchased from Aldrich Chemical Co.; Milwaukee, Wis.)”, “Cinnamyl alcohol, 4-methoxycinnamaldehyde, cinnamyl acetate, and 4-(4′methoxyphenyl)-3-butene-2-one which are solids at ambient temperature were prepared as standard w/v solutions in acetone prior to dosing the cotton wicks. All” for “Unless otherwise indicated, all”
as §2

[6] = South Farms, 24 h, mixture 20 mg of each component, n = 4

COc1ccc(CCN)cc1 [4-methoxyphenylethylamine]
Mean number of NCR per trap (± standard deviation) [1]: 24.2 ± 15.4a per trap

CC=Cc1cccc(OC)c1 [II, 4-methoxy-2-propenylbenzene]
Mean number of WCR per trap (±standard deviation) [2, 6]: 9.0 ± 4.3 per trap | relative percent activity of the mean WCR trap catch as compared with the highest mean value in the column ([2]; mixture 20 mg each component): 100% | Relative percent activity as compared with the highest mean in the column (WCR) ([3]; July 30): 58% | Mean number of WCR per sticky trap (±standard deviation) after 24 hours ([3]; July 30): 48.0 ± 23.3 per sticky trap | Mean number of SCR per trap (±standard deviation) [4, 6]: 1.5 ± 1.0 per trap | relative percent activity of the mean SCR trap catch as compared with the highest mean value in the column ([4]; mixture 20 mg each component): 7%

C=Cc1ccc(OC)cc1 [III, 4-methoxy-1-vinyl benzene]
Relative percent activity as compared with the highest mean in the column (WCR) ([3]; August 29): 15% | Mean number of WCR per sticky trap (±standard deviation) after 24 hours ([3]; August 29): 21.5 ± 6.5 per sticky trap | Relative percent activity as compared with the highest mean in the column (WCR) ([3]; July 30): 40% | Mean number of WCR per sticky trap (±standard deviation) after 24 hours ([3]; July 30): 32.2 ± 13.5 per sticky trap

CCCc1ccc(OC)cc1 [IV, 4-methoxy-1-propylbenzene]
Relative percent activity as compared with the highest mean in the column (WCR) ([3]; July 30): 37% | Mean number of WCR per sticky trap (±standard deviation) after 24 hours ([3]; July 30): 30.5 ± 11.0 per sticky trap

COc1ccc(C=CC#N)cc1 [IX, 4-methoxycinnamonitrile]
Mean number of WCR adults per sticky trap (±standard deviation) after 24 hours ([3]; August 4 second year): 196.0 ± 145.3^de per sticky trap | Mean number of WCR adults per sticky trap (±standard deviation) after 24 hours ([3]; August 5 first year): 59.0 ± 32.1^d per sticky trap | Mean number of SCR adults per sticky trap (±standard deviation) after 24 hours ([5]; August 4 second year): 4.0 ± 2.2^ab per sticky trap | Mean number of SCR adults per sticky trap (±standard deviation) after 24 hours ([5]; August 5 first year): 6.5 ± 3.0^a per sticky trap

COCc1ccc(OC)cc1 [V, 4-methoxy benzyl methyl ether]
Relative percent activity as compared with the highest mean in the column (WCR) ([3]; August 29): 32% | Mean number of WCR per sticky trap (±standard deviation) after 24 hours ([3]; August 29): 46.7 ± 29.6 per sticky trap | Relative percent activity as compared with the highest mean in the column (WCR) ([3]; July 30): 46% | Mean number of WCR per sticky trap (±standard deviation) after 24 hours ([3]; July 30): 37.7 ± 23.4 per sticky trap

COc1ccc(CC#N)cc1 [VII, 4-methoxyphenyl acetonitrile]
Relative percent activity as compared with the highest mean in the column (WCR) ([3]; August 29): 78% | Mean number of WCR per sticky trap (±standard deviation) after 24 hours ([3]; August 29): 114.5 ± 83.4 per sticky trap | Relative percent activity as compared with the highest mean in the column (WCR) ([3]; July 30): 46% | Mean number of WCR per sticky trap (±standard deviation) after 24 hours ([3]; July 30): 37.5 ± 8.4 per sticky trap

C=CCc1ccccc1 [VIII, allylbenzene]
Mean number of WCR adults per sticky trap (±standard deviation) after 24 hours ([3]; August 4 second year): 10.0 ± 1.4^a per sticky trap | Mean number of WCR adults per sticky trap (±standard deviation) after 24 hours ([3]; August 5 first year): 1.0 ± 0.8^a per sticky trap | Mean number of SCR adults per sticky trap (±standard deviation) after 24 hours ([5]; August 4 second year): 12.4 ± 7.2^b per sticky trap | Mean number of SCR adults per sticky trap (±standard deviation) after 24 hours ([5]; August 5 first year): 24.7 ± 16.9^a per sticky trap

COc1ccccc1C=CC=O [XIII, 2-methoxycinnamaldehyde]
Mean number of WCR adults per sticky trap (±standard deviation) after 24 hours ([3]; August 4 second year): 53.0 ± 14.7^c per sticky trap | Mean number of SCR adults per sticky trap (±standard deviation) after 24 hours ([5]; August 4 second year): 12.2 ± 9.9^b per sticky trap

COc1ccc(C=CC(C)=O)cc1 [XVI, 4-(4′-methoxyphenyl)-3-butene-2-one]
Mean number of WCR adults per sticky trap (±standard deviation) after 24 hours ([3]; September 11): 2.0 ± 3.7^a per sticky trap | Mean number of SCR adults per sticky trap (±standard deviation) after 24 hours ([5]; September 11): 1.0 ± 0.8^a per sticky trap

CC(=O)C=Cc1ccccc1 [XVII, phenyl-3-butone-2-one ketone]
Mean number of WCR adults per sticky trap (±standard deviation) after 24 hours ([3]; September 11): 0.0 per sticky trap | Mean number of SCR adults per sticky trap (±standard deviation) after 24 hours ([5]; September 11): 5.0 ± 3.7^b per sticky trap

NCc1ccccc1 [benzylamine]
Mean number of NCR per trap (± standard deviation) [1]: 57.5 ± 29.6b* per trap

NCCCCc1ccccc1 [phenylbutylamine]
Mean number of NCR per trap (± standard deviation) [1]: 12.2 ± 6.1a per trap

NCCc1ccccc1 [phenylethylamine]
Mean number of NCR per trap (± standard deviation) [1]: 206.7 ± 32.3d per trap | Mean number (control subtracted) of NCR per trap ([1]; day 1 after single 100 mg dosage on cotton wick): 85.9 per trap | Mean number (control subtracted) of NCR per trap ([1]; day 2 after single 100 mg dosage on cotton wick): 125.3 per trap | Mean number (control subtracted) of NCR per trap ([1]; day 3 after single 100 mg dosage on cotton wick): 39.4 per trap | Mean number (control subtracted) of NCR per trap ([1]; day 4 after single 100 mg dosage on cotton wick): 27.5 per trap | Mean number (control subtracted) of NCR per trap ([1]; day 5 after single 100 mg dosage on cotton wick): 155.4 per trap | Mean number (control subtracted) of NCR per trap ([1]; day 6 after single 100 mg dosage on cotton wick): 44.2 per trap | Mean number (control subtracted) of NCR per trap ([1]; day 7 after single 100 mg dosage on cotton wick): 38.4 per trap | Mean number (control subtracted) of NCR per trap ([1]; day 8 after single 100 mg dosage on cotton wick): 17.5 per trap | Mean number (control subtracted) of NCR per trap ([1]; day 11 after single 100 mg dosage on cotton wick): 3.8 per trap

NCCCc1ccccc1 [phenylpropylamine]
Mean number of NCR per trap (± standard deviation) [1]: 131.5 ± 16.5c per trap
